From publication PMC6956158, “In Vitro and In Vivo Assessment of Metabolic Drug Interaction Potential of Dutasteride with Ketoconazole” (Pharmaceutics, 2019)
Blank lines part the entries; values can stand above or below the compound they belong to.

Experiments:
[1] = Stability in rat plasma (QC samples); assay type: in vitro ADME; details: n = 5; for Stability (percent drug remaining), Autosampler: 10 °C for 24 h in the autosampler; for Stability (percent drug remaining), Bench-Top: room temperature for 3 h; for Stability (percent drug remaining), Freeze-Thaw: three freezing and thawing cycles; for Stability (percent drug remaining), Long-Term: −20 °C for 30 days
Procedure: The bioanalytical method proposed herein for the simultaneous determination of DUT and H-DUT was fully validated on the basis of the US FDA guideline. The selectivity of the method was evaluated by comparing chromatograms of the analytes (DUT, H-DUT, and internal standard) in blank rat plasma, blank rat plasma spiked with the analytes, and rat plasma sample obtained from the in vivo rat pharmacokinetic study. Further, the existence of potential interferences at the acquisition windows of the analytes was checked. The linearity of the method was evaluated by adding increasing amounts of DUT and H-DUT to the blank plasma. To construct calibration curves (n = 5), the peak area ratios of DUT or H-DUT to the internal standard (y-axis) were plotted against the nominal concentration ratios of DUT or H-DUT (10–1000 ng/mL) to the internal standard (400 ng/mL) (x-axis), and then, linear regression analysis was performed. The sensitivity was assessed by estimating the LLOQ (signal-to-noise [S/N] ratio > 5). The peaks of the analytes at the LLOQ should be discrete, identifiable, and reproducible with acceptable precision (<20%) and accuracy (within 80–120%). The extraction recovery, matrix effect, dilution integrity, and stability (under bench-top, freeze–thaw, post-preparative, and long-term conditions) in addition to the intra-assay (five different samples) and inter-assay (five different runs) precision and accuracy for each analyte were determined at the LLOQ and three different QC levels as described in the US FDA guidelines and in previous studies.

[2] = In vivo pharmacokinetic study in rats, intravenous DUT without or with intravenous KET; parameters: species or system rat; details: male, Sprague-Dawley, rat, plasma, iv, 2.5 mg/kg, n = 4
Source text: (§1) The animal experiment protocols used in the present study were approved by the Pusan National University-Institutional Animal Care and Use Committee for scientific care and ethical procedures (Busan, Korea; approval date: 01/05/2018; approval number: PNU-2018-1848). Male Sprague–Dawley rats (8-week-old; approximately 250 g) were purchased from DBL Co., Ltd. (Incheon, Korea). The rats were acclimatized in a clean room of the Laboratory Animal Center of Pusan National University (Busan, Korea) for 1 week. Then, they were fasted for 12 h prior to the pharmacokinetic experiment and then anesthetized by intramuscular injection of Zoletil at a dose of 20 mg/kg. The femoral vein and artery of the rats were cannulated with a polyethylene tube (BD Medical; Franklin Lakes, NJ, USA). At approximately 4–6 h after the surgery for cannulation, an intravenous dose of DUT (2.5 mg/kg) simultaneously with or without intravenous KET (20 mg/kg) or an oral dose of DUT (5 mg/kg) simultaneously with or without intravenous KET (20 mg/kg) was administered to the rats. Drugs were dissolved in a vehicle consisting of dimethyl sulfoxide, ethanol, and polyethylene glycol 400 at a ratio of 10:5:85 (v/v/v). Blood (approximately 200 μL) was collected in heparin pre-treated microcentrifuge tubes via the femoral artery at 0, 1, 5, 15, 30, 60, 120, 180, 240, 360, 480, and 1200 min after the intravenous dose and at 0, 5, 15, 30, 60, 120, 150, 180, 240, 360, 480, and 1200 min after the oral dose. Following centrifugation of the blood samples at 3000× g at 4 °C for 10 min [19], 100 μL aliquots of plasma were stored at −80 °C.
(§2) The half maximal inhibitory concentration (IC50) of KET for the inhibition of the DUT metabolism was determined by the nonlinear regression analysis (GraphPad Prism ver. 5.01; GraphPad Software Inc., San Diego, CA, USA) based on the following Hill equation: y = Min + Max−Min/1 + (x/IC50)^-P where Max and Min are the initial and final y value, respectively, and the exponent P represents the Hill coefficient. Peak plasma concentration (Cmax) and time to reach Cmax (Tmax) were read directly from the observed data. Non-compartmental analysis was conducted to estimate pharmacokinetic parameters such as total area under plasma concentration versus time curve from time zero to time of last sampling (AUClast), total area under plasma concentration versus time curve from time zero to infinity (AUCinf), total plasma clearance (CL), volume of distribution at steady state (Vss), and terminal half-life (t1/2) using the NCA200 and 201 models of WinNonlin ver. 3.1 (Certara USA Inc., Princeton, NJ, USA).

[3] = In vivo pharmacokinetic study in rats, oral DUT without or with KET; parameters: species or system rat; details: male, Sprague-Dawley, rat, plasma, po, 5 mg/kg, n = 4
Source text: as §1, with “([…])” for “(20 mg/kg) or an oral dose of DUT (5 mg/kg) simultaneously with or without intravenous KET (20 mg/kg)”
as §2

[4] = parameters: method as in ref 13 (supplement); details: ref 13 (supplement); cited from earlier work
[5] = system: DUT metabolism in HLM; assay: Inhibition of DUT metabolism by KET in HLM; assay type: in vitro ADME, human
Procedure: (§3) To investigate the metabolic interaction potential between DUT and KET, the disappearance of DUT (5 μM) in RLM and HLM was determined under the absence and presence of KET at various concentrations ranging from 1 to 5000 nM. A microsomal reaction mixture was prepared as follows (total volume: 0.2 mL): 1 mM NADPH, 10 mM MgCl2, substrate (DUT), and inhibitor (KET), RLM or HLM (1 mg/mL), and 50 mM phosphate buffer. […] The unbound fractions of DUT in rat plasma, RLM, human plasma, and HLM were measured using a rapid equilibrium dialysis (RED) device (Thermo Fisher Scientific, Inc., Waltham, MA, USA) as described in a previous study. […] The fraction unbound was calculated as the ratio of the drug concentrations in the “buffer” chamber to those in the “sample” chamber. The blood-to-plasma concentration ratio (RB) of DUT was determined as described previously. […] The concentrations of DUT in the plasma sample were determined by the validated HPLC analysis.
(§4) The half maximal inhibitory concentration (IC50) of KET for the inhibition of the DUT metabolism was determined by the nonlinear regression analysis (GraphPad Prism ver. 5.01; GraphPad Software Inc., San Diego, CA, USA) based on the following Hill equation: y = Min + Max−Min/1 + (x/IC50)^-P where Max and Min are the initial and final y value, respectively, and the exponent P represents the Hill coefficient. […]

[6] = system: DUT metabolism in RLM; assay: Inhibition of DUT metabolism by KET in RLM; assay type: in vitro ADME, rat; details: RLM 1 mg/mL, DUT 5 μM, 90 min
Procedure: as §3, §4

[7] = parameters: method as in ref 12 (supplement); details: ref 12 (supplement); cited from earlier work
[8] = intravenous DUT 2.5 mg/kg with intravenous KET 20 mg/kg
[9] = intravenous DUT 2.5 mg/kg, DUT alone
[10] = oral DUT 5 mg/kg with oral KET (20 mg/kg)

Stability (percent drug remaining), Autosampler ([1]; HQC 750 ng/mL): 104 ± 1%
Stability (percent drug remaining), Bench-Top ([1]; HQC 750 ng/mL): 101 ± 0%
Stability (percent drug remaining), Freeze-Thaw ([1]; HQC 750 ng/mL): 101 ± 1%
Stability (percent drug remaining), Long-Term ([1]; HQC 750 ng/mL): 106 ± 1%
Stability (percent drug remaining), Autosampler ([1]; LLOQ 10 ng/mL): 103 ± 4%
Stability (percent drug remaining), Bench-Top ([1]; LLOQ 10 ng/mL): 102 ± 4%
Stability (percent drug remaining), Freeze-Thaw ([1]; LLOQ 10 ng/mL): 101 ± 7%
Stability (percent drug remaining), Long-Term ([1]; LLOQ 10 ng/mL): 96.1 ± 4.7%
Stability (percent drug remaining), Autosampler ([1]; LQC 30 ng/mL): 97.1 ± 0.8%
Stability (percent drug remaining), Bench-Top ([1]; LQC 30 ng/mL): 104 ± 9%
Stability (percent drug remaining), Freeze-Thaw ([1]; LQC 30 ng/mL): 99.0 ± 2.3%
Stability (percent drug remaining), Long-Term ([1]; LQC 30 ng/mL): 95.1 ± 3.7%
Stability (percent drug remaining), Autosampler ([1]; MQC 150 ng/mL): 103 ± 4%
Stability (percent drug remaining), Bench-Top ([1]; MQC 150 ng/mL): 99.0 ± 1.4%
Stability (percent drug remaining), Freeze-Thaw ([1]; MQC 150 ng/mL): 103 ± 3%
Stability (percent drug remaining), Long-Term ([1]; MQC 150 ng/mL): 98.7 ± 1.5%
AUC(0-t) [2, 8]: 1070 ng·h/mL
Cmax [2, 8]: 116 ± 4 ng/mL
AUC(0-t) [2, 9]: 2130 ng·h/mL
Cmax [2, 9]: 141 ± 17 ng/mL
AUC(0-t) [3, 10]: 630 ng·h/mL
Cmax [3, 10]: 62.8 ± 12.3 ng/mL
AUC(0-t) ([3]; oral DUT 5 mg/kg, DUT alone): 1590 ng·h/mL
Cmax ([3]; oral DUT 5 mg/kg, DUT alone): 103 ± 20 ng/mL
Structure (SMILES): C[C@]12C=CC(=O)N[C@@H]1[C@H](O)C[C@@H]1[C@@H]2CC[C@]2(C)[C@@H](C(=O)Nc3cc(C(F)(F)F)ccc3C(F)(F)F)CC[C@@H]12 [H-DUT, 6β-hydroxydutasteride]

IC50 ([5]; HLM 1 mg/mL, DUT 5 μM, 90 min): 54.9 ± 15.6 nM
Ki ([5]; HLM, fu,mic,KET × IC50 / (S/Km + 1), competitive inhibition assumed, read-out: Ki (unbound inhibition constant)): 48.5 nM
IC50 [6]: 77.3 ± 11.1 nM
Structure (SMILES): CC(=O)N1CCN(c2ccc(OCC3COC(Cn4ccnc4)(c4ccc(Cl)cc4Cl)O3)cc2)CC1 (centres unmarked) [KET, ketoconazole]
Imax,u, maximum unbound plasma concentration [4]: 0.0913 µM
fu,mic,KET, unbound fraction in HLM [7]: 0.97
